Source: ChEMBL document CHEMBL3822444, “Synthesis and cytotoxic evaluation of novel indenoisoquinoline-substituted triazole hybrids” (Bioorg Med Chem Lett, 2016)

Legend:
KB = test: Cytotoxicity against human KB cells assessed as growth inhibition measured after 3 days by MTT assay; format: functional, cell-based; settings: 72 h
HepG2 = test: Cytotoxicity against human HepG2 cells assessed as growth inhibition measured after 3 days by MTT assay; format: functional, cell-based; settings: HepG2, 72 h

Compound | IC50 (KB) | IC50 (HepG2)
Cc1cn([C@H]2C[C@H](n3cc(COC(=O)[C@H](CO)n4c5c(c6ccccc6c4=O)C(=O)c4ccccc4-5)nn3)[C@@H](CO)O2)c(=O)[nH]c1=O | 0.35 µM | 1.18 µM
Cc1ccc(S(=O)(=O)NCc2cn(CC(O)Cn3c4c(c5ccccc5c3=O)C(=O)c3ccccc3-4)nn2)cc1 (stereo unspecified) | 115 µM | 115 µM
COc1ccc(C(=O)OCc2cn(CC(O)Cn3c4c(c5ccccc5c3=O)C(=O)c3ccccc3-4)nn2)cc1 (stereo unspecified) | 11.2 µM | 11.9 µM
[N-]=[N+]=NCC(O)Cn1c2c(c3ccccc3c1=O)C(=O)c1ccccc1-2 (stereo unspecified) | 42 µM | 45 µM
Cc1cn([C@H]2C[C@H](N=[N+]=[N-])[C@@H](CO)O2)c(=O)[nH]c1=O [ZIDOVUDINE] | – | > 479 µM
NCc1cn(CC(O)Cn2c3c(c4ccccc4c2=O)C(=O)c2ccccc2-3)nn1 (stereo unspecified) | 50 µM | 195 µM
Cc1cn([C@H]2C[C@H](n3cc(COC(=O)[C@H](CC(C)C)n4c5c(c6ccccc6c4=O)C(=O)c4ccccc4-5)nn3)[C@@H](CO)O2)c(=O)[nH]c1=O | 0.75 µM | 2.25 µM
O=C1c2ccccc2-c2c1c1ccccc1c(=O)n2CC(O)Cn1cc(CO)nn1 (stereo unspecified) | 2.86 µM | 0.74 µM
O=C1c2ccccc2-c2c1c1ccccc1c(=O)n2Cc1cn(CC(O)Cn2c3c(c4ccccc4c2=O)C(=O)c2ccccc2-3)nn1 (stereo unspecified) | 2.89 µM | 2.29 µM
Cc1cn([C@@H]2C[C@@H](n3cc(COC(=O)[C@@H](Cc4c[nH]c5ccccc45)n4c5c(c6ccccc6c4=O)C(=O)c4ccccc4-5)nn3)[C@H](CO)O2)c(=O)[nH]c1=O (single isomer, unassigned) | 21.6 µM | 84.5 µM
O=C(OCc1cn(CC(O)Cn2c3c(c4ccccc4c2=O)C(=O)c2ccccc2-3)nn1)c1ccc(Br)cc1 (stereo unspecified) | 6.28 µM | 4.27 µM
O=C1c2ccccc2-c2c1c1ccccc1c(=O)n2CC(O)Cn1cc(CBr)nn1 (stereo unspecified) | 0.79 µM | 0.76 µM
CC(=O)Nc1cccc(-c2cn(CC(Cn3c4c(c5ccccc5c3=O)C(=O)c3ccccc3-4)OC(C)=O)nn2)c1 (stereo unspecified) | > 234 µM | > 234 µM
Cc1c2ccncc2c(C)c2c1[nH]c1ccccc12 [ELLIPTECINE] | 1.26 µM | 1.46 µM
Cc1cn([C@H]2C[C@H](n3cc(Cn4c5c(c6ccccc6c4=O)C(=O)c4ccccc4-5)nn3)[C@@H](CO)O2)c(=O)[nH]c1=O | 0.79 µM | 0.64 µM
CC(=O)NCc1cn(CC(O)Cn2c3c(c4ccccc4c2=O)C(=O)c2ccccc2-3)nn1 (stereo unspecified) | 14.1 µM | 9.04 µM
Cc1cn([C@H]2C[C@H](n3cc(COC(=O)Cn4c5c(c6ccccc6c4=O)C(=O)c4ccccc4-5)nn3)[C@@H](CO)O2)c(=O)[nH]c1=O | 26.2 µM | 26.2 µM
O=C1c2ccccc2-c2c1c1ccccc1c(=O)n2CC(O)Cn1cc(CN2CCOCC2)nn1 (stereo unspecified) | 1.56 µM | 10.2 µM
O=C(OCc1cn(CC(O)Cn2c3c(c4ccccc4c2=O)C(=O)c2ccccc2-3)nn1)c1ccc(Cl)cc1 (stereo unspecified) | 10.5 µM | 9.75 µM
CC(C)C(=O)NCc1cn(CC(O)Cn2c3c(c4ccccc4c2=O)C(=O)c2ccccc2-3)nn1 (stereo unspecified) | 123 µM | 22.1 µM
Nc1cccc(-c2cn(CC(O)Cn3c4c(c5ccccc5c3=O)C(=O)c3ccccc3-4)nn2)c1 (stereo unspecified) | 15.3 µM | 32 µM
Cc1ccc(NC(=O)c2ccc(Cn3cc(Cn4c5c(c6ccccc6c4=O)C(=O)c4ccccc4-5)nn3)cc2)cc1Nc1nccc(-c2cccnc2)n1 | 1.56 µM | 2.33 µM
O=C(NCc1cn(CC(O)Cn2c3c(c4ccccc4c2=O)C(=O)c2ccccc2-3)nn1)c1ccc(Br)cc1 (stereo unspecified) | 56.7 µM | 43.8 µM
CC(=O)OCc1cn(CC(Cn2c3c(c4ccccc4c2=O)C(=O)c2ccccc2-3)OC(C)=O)nn1 (stereo unspecified) | 18.6 µM | 19 µM
Cc1ccc(S(=O)(=O)Nc2cccc(-c3cn(CC(O)Cn4c5c(c6ccccc6c4=O)C(=O)c4ccccc4-5)nn3)c2)cc1 (stereo unspecified) | 89.9 µM | 69.8 µM
Cc1cn([C@H]2C[C@H](n3cc(COC(=O)[C@H](Cc4ccccc4)n4c5c(c6ccccc6c4=O)C(=O)c4ccccc4-5)nn3)[C@@H](CO)O2)c(=O)[nH]c1=O | 0.49 µM | 0.48 µM
